Biological target: T1, human IDO1 (Homo sapiens, UniProt P14902)
T1 construct: expressed in transfected cells
Assay: IDO inhibition assay in human IDO1/HEK293 cells (IDO1 HEK Human)
Assay type: cell-based
Details: HEK293 cells stably expressing human IDO1; 20 hours incubation; absorbance at 490 nm after Ehrlich reagent
Summary of the method: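 HEK293 clones stably expressing human IDO1 (10,000 cells/well, phenol red-free RPMI, 10% FBS) were treated with compound for 20 hours at 37° C. After 0.2% TCA and 30 min at 50° C., kynurenine was read with Ehrlich reagent at 490 nm. IC50 was normalised to DMSO (0%) and 500 nM reference standard (100%).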

T1 sequence (P14902 whole entry): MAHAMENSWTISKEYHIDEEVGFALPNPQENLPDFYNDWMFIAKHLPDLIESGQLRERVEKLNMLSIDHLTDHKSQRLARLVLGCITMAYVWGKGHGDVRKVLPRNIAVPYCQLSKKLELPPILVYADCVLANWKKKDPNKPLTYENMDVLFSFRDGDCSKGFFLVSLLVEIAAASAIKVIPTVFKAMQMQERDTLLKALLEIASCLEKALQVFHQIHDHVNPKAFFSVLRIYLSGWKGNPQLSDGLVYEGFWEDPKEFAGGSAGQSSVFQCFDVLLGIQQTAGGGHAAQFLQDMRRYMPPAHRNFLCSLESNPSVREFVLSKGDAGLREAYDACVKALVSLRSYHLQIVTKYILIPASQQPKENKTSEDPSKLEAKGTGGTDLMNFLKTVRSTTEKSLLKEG

SMILES	IC50
O=C(Nc1nc2ccccc2s1)Nc1cc(-c2ccccc2-c2nnn[nH]2)cc2c1OCCCC2c1ccccc1 (stereo not shown) [Example 18, 1-(7-(2-(1H-tetrazol-5-yl)phenyl)-5-phenyl-2,3,4,5-tetrahydrobenzo[b]oxepin-9-yl)-3-(benzo[d]thiazol-2-yl)urea]	950 nM
FC(F)(F)c1cnc(Nc2cc(-c3ccccc3-c3nnn[nH]3)cc3c2OCCCC3c2ccccc2)nc1 (stereo not shown) [Example 54, N-(7-(2-(1H-tetrazol-5-yl)phenyl)-5-phenyl-2,3,4,5-tetrahydrobenzo[b]oxepin-9-yl)-5-(trifluoromethyl)pyrimidin-2-amine]	432 nM
O=C(Cc1ccccc1F)Nc1cc(-c2ccccc2-c2nnn[nH]2)cc2c1OCCCC2C1CC1 (single isomer, unassigned) [40 (En. 1), N-(7-(2-(1H-tetrazol-5-yl)phenyl)-5-cyclopropyl-2,3,4,5-tetrahydrobenzo[b]oxepin-9-yl)-2-(2-fluorophenyl)acetamide]	219 nM
Fc1cnc(Nc2cc(-c3ccccc3-c3nnn[nH]3)cc3c2OCCCC3c2ccccc2)nc1 (single isomer, unassigned) [63 (En-2), N-(7-(2-(1H-tetrazol-5-yl)phenyl)-5-phenyl-2,3,4,5-tetrahydrobenzo[b]oxepin-9-yl)-5-fluoropyrimidin-2-amine]	11.6 nM
CC1CCOc2c(Nc3nc4ccccc4o3)cc(-c3ccccc3-c3nnn[nH]3)cc2C1c1ccccc1 (single isomer, unassigned) [Example 51, N-(7-(2-(1H-tetrazol-5-yl)phenyl)-4-methyl-5-phenyl-2,3,4,5-tetrahydrobenzo[b]oxepin-9-yl)benzo[d]oxazol-2-amine]	3.8 nM
O=C(Nc1ccccc1F)Nc1cc(-c2ccccc2-c2nnn[nH]2)cc2c1OCCCC2c1ccccc1 (single isomer, unassigned) [10 (En.2), 1-(7-(2-(1H-tetrazol-5-yl)phenyl)-5-phenyl-2,3,4,5-tetrahydrobenzo[b]oxepin-9-yl)-3-(2-fluorophenyl)urea]	41.4 nM
Cc1ccc(NC(=O)Nc2cc(-c3cc(F)ccc3C(=O)O)cc3c2O[C@@H](C)[C@@H]3CCC(F)(F)F)cc1 (relative stereo) [Example 119, rel-4-fluoro-2-((2R,3S)-2-methyl-7-(3-(p-tolyl)ureido)-3-(3,3,3-trifluoropropyl)-2,3-dihydrobenzofuran-5-yl)benzoic acid]	785 nM
CC1(C)Oc2c(NC(=O)Nc3ccccc3F)cc(-c3ccccc3C(=O)O)cc2C1c1ccccc1 (racemic) [Example 126, (±)-2-(7-(3-(2-Fluorophenyl)ureido)-2,2-dimethyl-3-phenyl-2,3-dihydrobenzofuran-5-yl)benzoic acid]	310 nM
Fc1ccc2oc(Nc3cc(-c4ccccc4-c4nnn[nH]4)cc4c3OCCCC4C3CC3)nc2c1 (stereo not shown) [Example 27, N-(7-(2-(1H-tetrazol-5-yl)phenyl)-5-cyclopropyl-2,3,4,5-tetrahydrobenzo[b]oxepin-9-yl)-5-fluorobenzo[d]oxazol-2-amine]	26.4 nM
O=C(Nc1ccc(Cl)cc1F)Nc1cc(-c2ccccc2-c2nnn[nH]2)cc2c1OCCCC2C1CC1 (single isomer, unassigned) [41 (En. 1), 1-(7-(2-(1H-tetrazol-5-yl)phenyl)-5-cyclopropyl-2,3,4,5-tetrahydrobenzo[b]oxepin-9-yl)-3-(4-chloro-2-fluorophenyl)urea]	25.2 nM
Cc1cnc(Nc2cc(-c3ccccc3-c3nnn[nH]3)cc3c2OCCCC3c2ccccc2)nc1 (racemic) [55 (Rac), N-(7-(2-(1H-tetrazol-5-yl)phenyl)-5-phenyl-2,3,4,5-tetrahydrobenzo[b]oxepin-9-yl)-5-methylpyrimidin-2-amine]	155 nM

Further compounds by falling IC50, results first:

IC50	SMILES
2560 nM	Cc1ccc(-c2noc(Nc3cc(-c4ccccc4-c4nnn[nH]4)cc4c3OCCCC4c3ccccc3)n2)cc1 (single isomer, unassigned) [26 (En. 1), N-(7-(2-(1H-tetrazol-5-yl)phenyl)-5-phenyl-2,3,4,5-tetrahydrobenzo[b]oxepin-9-yl)-3-(p-tolyl)-1,2,4-oxadiazol-5-amine]
2100 nM	CC1(C)Oc2c(NC(=O)Nc3ccc(C(F)(F)F)nc3)cc(-c3ccccc3-c3nnn[nH]3)cc2C1c1ccccc1 (racemic) [Example 127, (±)-1-(5-(2-(1H-Tetrazol-5-yl)phenyl)-2,2-dimethyl-3-phenyl-2,3-dihydrobenzofuran-7-yl)-3-(6-(trifluoromethyl)pyridin-3-yl)urea]
1360 nM	CC(=O)NS(=O)(=O)c1ccccc1-c1cc(NC(=O)Nc2ccc(C)cc2)c2c(c1)C(c1ccccc1)CCCO2 (single isomer, unassigned) [Example 58, N-((2-(5-phenyl-9-(3′-(p-tolyl)ureido)-2,3,4,5-tetrahydrobenzo[b]oxepin-7-yl)phenyl)sulfonyl)acetamide]
539 nM	Fc1cnc(Nc2cc(-c3ccccc3-c3nnn[nH]3)cc3c2OCCCC3c2ccccc2)nc1 (single isomer, unassigned) [63 (En. 1), N-(7-(2-(1H-tetrazol-5-yl)phenyl)-5-phenyl-2,3,4,5-tetrahydrobenzo[b]oxepin-9-yl)-5-fluoropyrimidin-2-amine]
460 nM	Cc1ccc(NC(=O)Nc2cc(-c3ccccc3-c3nnn[nH]3)cc3c2OC(C)(C)C3)cc1 [Example 120, 1-(5-(2-(1H-Tetrazol-5-yl)phenyl)-2,2-dimethyl-2,3-dihydrobenzofuran-7-yl)-3-(p-tolyl)urea]
422 nM	c1ccc(C2CCCOc3c(Nc4nc5ccccc5s4)cc(-c4ccccc4-c4nnn[nH]4)cc32)cc1 (single isomer, unassigned) [64 (En. 1), N-(7-(2-(1H-tetrazol-5-yl)phenyl)-5-phenyl-2,3,4,5-tetrahydrobenzo[b]oxepin-9-yl) benzo[d]thiazol-2-amine]
419 nM	Cc1ccc(CC(=O)Nc2cc(-c3ccccc3-c3nnn[nH]3)cc3c2OCCCC3C)cc1 (stereo not shown) [Example 32, N-(7-(2-(1H-tetrazol-5-yl)phenyl)-5-methyl-2,3,4,5-tetrahydrobenzo[b]oxepin-9-yl)-2-(p-tolyl)acetamide]
221 nM	Cc1ccc(CC(=O)Nc2cc(-c3ccccc3-c3nnn[nH]3)cc3c2OCCCC3C2CC2)cc1 (single isomer, unassigned) [37 (En. 1), N-(7-(2-(1H-tetrazol-5-yl)phenyl)-5-cyclopropyl-2,3,4,5-tetrahydrobenzo[b]oxepin-9-yl)-2-(p-tolyl)acetamide]
93.8 nM	O=C(Nc1ccc(Cl)cc1F)Nc1cc(-c2ccccc2-c2nnn[nH]2)cc2c1OCCCC2C1CC1 (single isomer, unassigned) [41 (En. 2), 1-(7-(2-(1H-tetrazol-5-yl)phenyl)-5-cyclopropyl-2,3,4,5-tetrahydrobenzo[b]oxepin-9-yl)-3-(4-chloro-2-fluorophenyl)urea]
92 nM	CC1(C)Oc2c(NC(=O)Nc3ccccc3F)cc(-c3ccccc3-c3nnn[nH]3)cc2C1c1ccccc1 (racemic) [Example 125, (±)-1-(5-(2-(1H-Tetrazol-5-yl)phenyl)-2,2-dimethyl-3-phenyl-2,3-dihydrobenzofuran-7-yl)-3-(2-fluorophenyl)urea]
19.7 nM	O=C(Nc1ccccc1F)Nc1cc(-c2ccccc2-c2noc(=O)[nH]2)cc2c1OCCCC2C1CC1 (stereo not shown) [Example 35, 1-(5-cyclopropyl-7-(2-(5-oxo-4,5-dihydro-1,2,4-oxadiazol-3-yl)phenyl)-2,3,4,5-tetrahydrobenzo[b]oxepin-9-yl)-3-(2-fluorophenyl)urea]

Source: patent publication US12145927B2 (BRISTOL-MYERS SQUIBB COMPANY, priority 2018, dated 2024)
